Results: paper PMC222928 (BMC Biochemistry, 2003)

T1: aaTHEP1 (Aquifex aeolicus, UniProt O67322)
T1 sequence (O67322 1-178): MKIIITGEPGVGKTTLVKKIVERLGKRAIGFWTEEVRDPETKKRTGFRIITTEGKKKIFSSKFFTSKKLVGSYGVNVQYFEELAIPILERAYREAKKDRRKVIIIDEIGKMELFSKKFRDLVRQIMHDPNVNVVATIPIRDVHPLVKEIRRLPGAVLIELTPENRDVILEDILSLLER

B1: aaTHEP1 (Aquifex aeolicus VF5) (protein)
chain: T1 sequence (O67322 1-178)

Columns and labels:
aaTHEP1 [1] = target: T1, aaTHEP1; experiment: inhibition of [γ-32P]ATP hydrolysis, TLC on PEI-cellulose; format: biochemical
aaTHEP1 [2] = target: T1, aaTHEP1; experiment: inhibition of [γ-32P]ATP hydrolysis, TLC autoradiography; format: biochemical; settings: 5 and 1000 μM ATP, 5 and 1000 μM GDP, 70°C, 5 min
purified protein = substrate: Nc1ncnc2c1ncn2[C@@H]1O[C@H](COP(=O)(O)OP(=O)(O)OP(=O)(O)O)[C@@H](O)[C@H]1O; experiment: purified protein; settings: 70°C, 25 mM MgCl2, 5 mM KCl, pH 7.0, labelled compound

Molecule | Ki (aaTHEP1 [1]) | further results
Nc1ccn([C@H]2C[C@H](O)[C@@H](COP(=O)(O)OP(=O)(O)OP(=O)(O)O)O2)c(=O)n1 [dCTP] | 9 ± 3 µM | 
Nc1nc2c(ncn2[C@H]2C[C@H](O)[C@@H](COP(=O)(O)OP(=O)(O)OP(=O)(O)O)O2)c(=O)[nH]1 [dGTP] | 18 ± 2 µM | 
Nc1ncnc2c1ncn2[C@H]1C[C@H](O)[C@@H](COP(=O)(O)OP(=O)(O)OP(=O)(O)O)O1 [dATP] | 3 ± 0.2 µM | 
Nc1ccn([C@@H]2O[C@H](COP(=O)(O)OP(=O)(O)OP(=O)(O)O)[C@@H](O)[C@H]2O)c(=O)n1 [CTP] | 6 ± 2 µM | 
Cc1cn([C@H]2C[C@H](O)[C@@H](COP(=O)(O)OP(=O)(O)OP(=O)(O)O)O2)c(=O)[nH]c1=O [dTTP] | 6 ± 2 µM | 
Nc1nc2c(ncn2[C@@H]2O[C@H](COP(=O)(O)OP(=O)(O)O)[C@@H](O)[C@H]2O)c(=O)[nH]1 [GDP] |  | inhibition of [γ-32P]ATP hydrolysis, TLC autoradiography (aaTHEP1 [2]): GDP also inhibits ATP-hydrolysis, whereas GMP, AMP, and UMP show no inhibition
O=c1ccn([C@@H]2O[C@H](COP(=O)(O)OP(=O)(O)OP(=O)(O)O)[C@@H](O)[C@H]2O)c(=O)[nH]1 [UTP] | 5 ± 2 µM | 
Nc1nc2c(ncn2[C@@H]2O[C@H](COP(=O)(O)OP(=O)(O)OP(=O)(O)O)[C@@H](O)[C@H]2O)c(=O)[nH]1 [GTP] | 57 ± 20 µM | 
B1 |  | Km (purified protein): 5.5 µM; kcat (purified protein): 0.005 s⁻¹
